Converted amounts (≈) assume the structure as drawn.
Columns and labels:
gram positive bacteria = assay: MIC antimicrobial assay, microdilution broth method (NCCLS), gram positive bacteria; assay type: cell-based; details: range over the gram positive test organisms; 35° C., 16-20 hours
Method: (§1) 2. MIC Anitimicrobial Assay
(§2) The in vitro antimicrobial activity of the compounds was determined by the microdilution broth method following the test method from the National Committee for Laboratory Standards (NCCLS). This method is described in the NCCLS Document M7-A2, Vol. 10, No. 8 "Methods for Dilution Antimicrobial Susceptibility Test for Bacteria that Grow Aerobically--Second Edition."
(§3) In this method two-fold serial dilutions of drug in cation supplemented Mueller-Hinton broth are added to wells in microdilution trays. The test organisms are prepared by adjusting the turbidity of actively growing broth cultures so that the final concentration of test organism after it is added to the wells is approximately 5×10^4 CFUs/well.
(§4) Following inoculation of the microdilution trays, the trays are incubated at 35° C. for 16-20 hours and then read. […] The amount of growth in the wells containing the test compound is compared with the amount of growth in the growth-control wells (no test compound) used in each tray. As set forth in Tables 1 and 2, compounds of the present invention were tested against a variety of Gram+ and Gram- pathogenic bacteria resulting in a range of activities, from 1→128 μg/mL depending on the organism tested. The following test organisms were utilized in the assay:
Enterococcus faecalis ATCC 29212
Enterococcus faecalis oc 3041
Enterococcus faecium oc 2993
Methicillin resistant Staphylococcus aureus oc 2089
Methicillin resistant Staphylococcus aureus oc667
Staphylococcus aureus ATCC 29213
Staphylococcus aureus ATCC 6538
Staphylococcus epidermidis oc 2603

Kinase A and SpoOF = molecular target: T1, Kinase A and SpoOF (Bacillus subtilis, UniProt P16497); assay: Autophosphorylation of Kinase A and Transphosphorylation of SpoOF Assay (HPK in vitro assay); assay type: biochemical; details: inhibition of KinA autophosphorylation / SpoOF transphosphorylation, inhibitor concentrations from 1 to 500 μM
T1 construct: made in house; host or cells: recombinant E. coli (overexpression)
T1 sequence (P16497 1-606): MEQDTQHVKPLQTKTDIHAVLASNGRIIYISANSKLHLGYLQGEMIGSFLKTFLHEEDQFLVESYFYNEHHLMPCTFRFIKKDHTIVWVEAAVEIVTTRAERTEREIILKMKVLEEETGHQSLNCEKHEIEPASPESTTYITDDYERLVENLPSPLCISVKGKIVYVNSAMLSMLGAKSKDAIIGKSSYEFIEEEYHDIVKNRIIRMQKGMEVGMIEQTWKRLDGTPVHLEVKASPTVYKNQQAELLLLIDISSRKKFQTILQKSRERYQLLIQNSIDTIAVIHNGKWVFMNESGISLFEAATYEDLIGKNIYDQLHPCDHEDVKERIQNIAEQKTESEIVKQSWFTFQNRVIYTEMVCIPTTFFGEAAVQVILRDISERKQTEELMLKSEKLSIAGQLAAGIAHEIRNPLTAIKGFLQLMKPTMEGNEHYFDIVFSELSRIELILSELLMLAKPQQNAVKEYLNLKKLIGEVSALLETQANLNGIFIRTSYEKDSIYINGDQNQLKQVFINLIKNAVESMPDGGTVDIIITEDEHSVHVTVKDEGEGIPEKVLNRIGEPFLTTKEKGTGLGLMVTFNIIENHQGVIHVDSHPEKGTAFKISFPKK
Procedure, shortened: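 Recombinant KinA and SpoOF (from E. coli) preincubated 15 min on ice with compound (1.0 mM solution in 5% DMSO, stock), then 10 min at room temperature with [32P]ATP. Labelled proteins resolved by SDS gel, quantified by phosphoimager; IC50 from 1–500 μM compound range.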

gram negative bacteria = assay: MIC antimicrobial assay, microdilution broth method (NCCLS), gram negative bacteria; assay type: cell-based; details: range over the gram negative test organisms; 35° C., 16-20 hours
Method: as §1, §2, §3, §4
Escherichia coli oc 2530 ss
Klebsiella pneumoniae oc 1943
Pseudomonas aeroginosa oc 161
Pseudomonas aeroginosa ATCC 27853

| SMILES | MIC (gram positive bacteria) [µg/mL] | IC50 (Kinase A and SpoOF) [µM] | MIC (gram negative bacteria) [µg/mL] |
| --- | --- | --- | --- |
| NCc1ccc(OCCC2Oc3ccccc3N(Cc3cccc(Cl)c3)C2=O)cc1 (centres unmarked) [Compound 2, 2-[2-[4-(Aminomethyl)phenoxy]ethyl]-4-(3-chlorobenzyl)-3,4-dihydro-3-oxo-2H-1,4-benzoxazine] | 8 to 32 (≈ 18.9 to 75.7 µM) | 55 |  |
| NCc1ccc(OCCC2Oc3ccccc3N(Cc3ccc(Cl)cc3)C2=O)cc1 (centres unmarked) [Compound 4, 2-[2-[4-(Aminomethyl)phenoxy]ethyl]-4-(4-chlorobenzyl)-3,4-dihydro-3-oxo-2H-1,4-benzoxazine] | 8 to 16 (≈ 18.9 to 37.8 µM) | 47 |  |
| NCCc1ccc(OCCC2Oc3ccccc3N(Cc3ccc(Cl)cc3)C2=O)cc1 (centres unmarked) [Compound 6, 2-[2-[4-(2-Aminoethyl)phenoxy]ethyl]-4-(4-chlorobenzyl)-3,4-dihydro-3-oxo-2H-1,4-benzoxazine] | 1 to 2 (≈ 2.29 to 4.58 µM) | 61 | 2 to 64 (≈ 4.58 to 146 µM) |
| NCCc1cccc(OCCC2Oc3ccccc3N(Cc3ccc(Cl)cc3)C2=O)c1 (centres unmarked) [Compound 8, 2-[2-[3-(2-Aminoethyl)phenoxy]ethyl]-4-(4-chlorobenzyl)-3,4-dihydro-3-oxo-2H-1,4-benzoxazine] | 8 to 16 (≈ 18.3 to 36.6 µM) | 89 | 8 to 128 (≈ 18.3 to 293 µM) |
| NCCc1cccc(OCCC2Oc3ccccc3N(Cc3ccccc3Cl)C2=O)c1 (centres unmarked) [Compound 16, 2-[2-[3-(2-Aminoethyl)phenoxy]ethyl]-4-(2-chlorobenzyl)-3,4-dihydro-3-oxo-2H-1,4-benzoxazine] | 8 to 16 (≈ 18.3 to 36.6 µM) | 74 |  |
| N=C(N)NCc1ccc(OCCC2Oc3ccccc3N(Cc3ccccc3Cl)C2=O)cc1 (centres unmarked) [Compound 19, 4-(2-Chlorobenzyl)-2-[2-[4-(guanidinomethyl)phenoxy]ethyl]-3,4-dihydro-3-oxo-2H-1,4-benzoxazine] | 1 to 4 (≈ 2.15 to 8.6 µM) | 16 |  |
| N=C(N)NCCc1ccc(OCCC2CN(Cc3ccc(Cl)cc3)c3ccccc3O2)cc1 (centres unmarked) [Compound 22, 4-(4-Chlorobenzyl)-2-[2-[4-(2-guanidinoethyl)phenoxy]ethyl]-3,4-dihydro-2H-1,4-benzoxazine] | 2 to 4 (≈ 4.3 to 8.6 µM) | 41 |  |
| N=C(N)NCCc1ccc(OCCC2CN(Cc3cccc(Cl)c3)c3ccccc3O2)cc1 (centres unmarked) [Compound 23, 4-(3-Chlorobenzyl)-2-[2-[4-(2-guanidinoethyl)phenoxy]ethyl]-3,4-dihydro-2H-1,4-benzoxazine] | 1 to 2 (≈ 2.15 to 4.3 µM) | 17 |  |
| N=C(N)NCCc1ccc(OCCC2Oc3ccccc3N(Cc3ccc(Cl)cc3)C2=O)cc1 (centres unmarked) [Compound 26, 4-(4-Chlorobenzyl)-3,4-dihydro-2-[2-[4-(2-guanidinoethyl)phenoxy]ethyl]-3-oxo-2H-1,4-benzoxazine] | 2 to 4 (≈ 4.18 to 8.35 µM) | 68 |  |
| NCc1ccc(OCCC2Oc3ccccc3N(Cc3cc(Cl)cc(Cl)c3)C2=O)cc1 (centres unmarked) [Compound 39, 2-{2-[4-(2-Aminomethyl)phenoxy]ethyl}-4-(3,5-dichlorobenzyl)-3,4-dihydro-3-oxo-2H-1,4-benzoxazine] | 4 to 16 (≈ 8.75 to 35 µM) | 46 |  |
| N=C(N)NCCc1ccc(OCCC2Oc3ccccc3N(Cc3cc(Cl)cc(Cl)c3)C2=O)cc1 (centres unmarked) [Compound 40, 4-(3,5-Dichlorobenzyl)-3,4-dihydro-2-{2-[4-(2-guanidinoethyl)phenoxy]ethyl}-3-oxo-2H-1,4-benzoxazine] | 2 (≈ 3.9 µM) | 24 |  |
| N=C(N)NCCc1ccc(OCCC2Oc3ccc(Cl)cc3N(Cc3cccc(Cl)c3)C2=O)cc1 (centres unmarked) [Compound 50, 6-Chloro-4-(3-chlorobenzyl)-2-{2-[4-(2-guanidinoethyl)phenoxy]ethyl}-3,4-dihydro-3-oxo-2H-1,4-benzoxazine] | 2 (≈ 3.9 µM) | 9 |  |
| Cc1ccc2c(c1)OC(CCOc1ccc(CCNC(=N)N)cc1)C(=O)N2Cc1cccc(Cl)c1 (centres unmarked) [Compound 58, 4-(3-Chlorobenzyl)-2-{2-[4-(2-guanidinoethyl)phenoxy]ethyl}-3,4-dihydro-7-methyl-3-oxo-2H-1,4-benzoxazine] | 2 (≈ 4.06 µM) | 17 |  |
| CN1C(=O)C(CCOc2ccc(CCNC(=N)N)cc2)Oc2ccccc21 (centres unmarked) [Compound 60, 3,4-Dihydro-2-{2-[4-(2-guanidinoethyl)phenoxy]ethyl}-4-methyl-3-oxo-2H-1,4-benzoxazine] | 16 to 34 (≈ 43.4 to 92.3 µM) | 55 |  |
| CCCCCN1C(=O)C(CCOc2ccc(CCNC(=N)N)cc2)Oc2ccccc21 (centres unmarked) [Compound 61, 3,4-Dihydro-2-{2-[4-(2-guanidinoethyl)phenoxy]ethyl}-3-oxo-4-pentyl-2H-1,4-benzoxazine] | 4 to 8 (≈ 9.42 to 18.8 µM) | 41 | 4 to 64 (≈ 9.42 to 151 µM) |
| NCCc1cccc(OCCC2Oc3ccccc3N(Cc3cc(Cl)cc(Cl)c3)C2=O)c1 (centres unmarked) [Compound 64, 2-{2-[3-(2-Aminoethyl)phenoxy]ethyl}-4-(3,5-dichlorobenzyl)-3,4-dihydro-3-oxo-2H-1,4-benzoxazine] | 4 to 8 (≈ 8.49 to 17 µM) | 32 |  |

Second part, the compound after the results:

| MIC (gram positive bacteria) [µg/mL] | IC50 (Kinase A and SpoOF) [µM] | MIC (gram negative bacteria) [µg/mL] | SMILES |
| --- | --- | --- | --- |
| 8 to 16 (≈ 18.3 to 36.6 µM) | 65 |  | NCCc1cccc(OCCC2Oc3ccccc3N(Cc3cccc(Cl)c3)C2=O)c1 (centres unmarked) [Compound 70, 2-{2-[3-(2-Aminoethyl)phenoxy]ethyl}-4-(3-chlorobenzyl)-3,4-dihydro-3-oxo-2H-1,4-benzoxazine] |
| 2 to 4 (≈ 4.18 to 8.35 µM) | 30 |  | N=C(N)NCCc1ccc(OCCC2Oc3ccccc3N(Cc3cccc(Cl)c3)C2=O)cc1 (centres unmarked) [Compound 72, 4-(3-Chlorobenzyl)-3,4-dihydro-2-{2-[4-(2-guanidinoethyl)phenoxy]ethyl}-3-oxo-2H-1,4-benzoxazine] |
| 8 to 16 (≈ 18.9 to 37.8 µM) | 81 |  | NCc1cccc(OCCC2Oc3ccccc3N(Cc3cccc(Cl)c3)C2=O)c1 (centres unmarked) [Compound 74, 2-{2-[3-(Aminomethyl)phenoxy]ethyl}-4-(3-chlorobenzyl)-3,4-dihydro-3-oxo-2H-1,4-benzoxazine] |
| 8 (≈ 17.7 µM) | 32 |  | NCCCc1ccc(OCCC2Oc3ccccc3N(Cc3cccc(Cl)c3)C2=O)cc1 (centres unmarked) [Compound 76, 2-{2-[4-(3-Aminopropyl)phenoxy]ethyl}-4-(3-chlorobenzyl)-3,4-dihydro-3-oxo-2H-1,4-benzoxazine] |
| 1 to 4 (≈ 2.15 to 8.6 µM) | 32 |  | N=C(N)NCc1ccc(OCCC2Oc3ccccc3N(Cc3cccc(Cl)c3)C2=O)cc1 (centres unmarked) [Compound 78, 4-(3-Chlorobenzyl)-3,4-dihydro-2-{2-[4-(guanidinylmethyl)phenoxy]ethyl}-3-oxo-2H-1,4-benzoxazine] |
| 8 to 16 (≈ 18.3 to 36.6 µM) | 78 |  | NCCc1ccc(OCCC2Oc3ccccc3N(Cc3cccc(Cl)c3)C2=O)cc1 (centres unmarked) [Compound 79, 2-{2-[4-(2-Aminoethyl)phenoxy]ethyl}-4-(3-chlorobenzyl)-3,4-dihydro-3-oxo-2H-1,4-benzoxazine] |
| 1 to 4 (≈ 1.91 to 7.63 µM) | 17 |  | N=C(N)NCCc1ccc(OCCC2Oc3ccc([N+](=O)[O-])cc3N(Cc3ccccc3Cl)C2=O)cc1 (centres unmarked) [Compound 89, 3,4-Dihydro-2-{2-[4-(2-guanidinoethyl)-phenoxy]ethyl}-6-nitro-4-(2-chlorobenzyl)-3-oxo-2H-1,4-benzoxazine] |
| 2 to 16 (≈ 4.05 to 32.4 µM) | 34 |  | N=C(N)NCCc1ccc(OCCC2Oc3ccc(N)cc3N(Cc3cccc(Cl)c3)C2=O)cc1 (centres unmarked) [Compound 92, 6-Amino-4-(3-chlorobenzyl)-3,4-dihydro-2-{2-[4-(2-guanidinoethyl)phenoxy]ethyl}-3-oxo-2H-1,4-benzoxazine] |
| 1 to 2 (≈ 2.22 to 4.43 µM) | 23 |  | N=C(N)NCc1ccc(OCCC2CN(Cc3ccccc3Cl)c3ccccc3O2)cc1 (centres unmarked) [Compound 145, 2-[2-[4-(2-guanidinomethyl)phenoxy]ethyl]-4-(2-chlorobenzyl)-3,4-dihydro-2H-1,4-benzoxazine] |

— patent US5696117A, “Benzoxazine antimicrobial agents” (Ortho Pharmaceutical Corporation, priority 1995, dated 1997)
